What was measured:
[1] = Lipid lowering effect in obese Zucker fa/fa rats (Example 3); format: in vivo; conditions: 300 mg/day/kg by gavage once daily for 10 days; control palmitic acid
Method: (§1) Glucose (GLU, Boehringer Mannheim, Germany), free fatty acids (NEFA, C ACS-ACOD kit; Wako Chemicals, Dalton, USA) and b-hydroxybutyrate (310-A kit; Sigma Diagnostics Inc., St. Louis, USA) concentrations were measured using enzymatic methods. Insulin concentrations were determined with radioimmunoassay by (CIS bio International, Gif sur Yvette, France) using rat insulin as standard in the Zucker rats. In the Wistar Charles River rats, plasma glucose concentrations were measured with the aid of Beckman Glucose Analyzer (Fullerton, Calif., USA). Plasma insulin levels were measured using a RIA kit from Linco Research Inc. (St. Charles, Mo., USA). Phospholipids were measured by the enzymatic method of bioMérieux, Marcy-l{grave over ( )}Etoile, France, Triacylglycerol by the Technicon Method no. SA4-0324L90, USA and Cholesterol by the Technicon Method no. SA4-0305L90, USA.
Male obese Zucker fa/fa rats, weighing 100 g at the start of the experiment, were housed in pairs in metal wire cages in a room maintained at 12 h light-dark cycles and a constant temperature of 20±3° C. The animals were acclimatised for at least one week under these conditions before the start of the experiment.
TTA (tetradecylthioacetic acid) prepared in accordance with procedure described previously, and palmitic acid (control), was suspended in 0.5% (w/v) carboxymethyl cellulose (CMC). Six animals were used in both groups. TTA (tetradecylthioacetic acid) and palmitic acid were administered at a dose of 300 mg/day/kg body weight, by gastric intubation (gavage) once daily for 10 days. The rats were fasted for 2 hours before termination of the experiment. Blood and organs were collected. Lipid concentrations in plasma were determined using an autoanalyzer, as described in the method section.

[2] = system: mitochondrial β-oxidation; assay: Liver fatty acid oxidation in treated obese Zucker rats (Example 16); format: in vivo, obese Zucker (fa/fa) rats; conditions: palmitoyl-CoA and palmitoyl-L-carnitine as substrates; chow with 0.15% TTA, 21 days
Method: Freshly isolated livers from individual old Zucker rats, were homogenised in ice-cold sucrose buffer (0.25 M sucrose, 10 mM HEPES (pH 7.4) and 2 mM EDTA). Post-nuclear and mitochondrial fractions were prepared using preparative differential centrifugation according to DeDuve et al. (De Duve, C., et al., Biochem. J., 60, 604-617 1955.) Modifications, purity and yield were as described earlier (Garras, A., et al., Biochim. Biophys. Acta, 1255, 154-160 1995.). Acid soluble products were measured in post-nuclear and mitochondrial enriched fractions, using [1-^14C]-palmitoyl-CoA and [1-^14C]-palmitoyl-L-carnitine (Radio-chemical Centre, Amersham, England) as substrates as described earlier (Willumsen, N., et al., J. Lipid Res., 34, 13-22 1993. Carnitine palmitoyltransferase-I and -II activities were measured in the post-nuclear and mitochondrial fractions essentially as described by Bremer (Bremer, J., Biochim. Biophys. Acta, 665, 628-631 1981.) and 3-hydroxy-3-methylglutharyl-CoA synthase was measured according to Clinkenbeard et al. (Clinkenbeard, K. D., et al., J. Biol. Chem, 250, 3108-3116 1975.) in the mitochondrial fractions.
Obese Zucker (fa/fa) rats were given a standard chow either with (n=6) or without (n=5) 0.15% TTA. Following 21 days of treatment, rats were killed by cervical dislocation and the livers were removed. […] Values are expressed as the mean±S.D.

[3] = Lipid lowering effect in normal Wistar rats (Example 4); format: in vivo; conditions: gavage once daily for 7 days; dose mg/day/kg body weight: TSA 15, EPA 1500, TTA 150
Method: Male Wistar rats, weighing 180-200 g at the start of the experiment, were housed individually in metal wire cages in a room maintained at 12 h light-dark cycles and a constant temperature of 20±3° C. The animals were acclimatised for one week under these conditions before the start of the experiments.
TTA, TSA and eicosapentaenoic acid (EPA) were suspended in 0.5% (w/v) carboxymethyl cellulose (CMC). Six animals were used for each treatment, and a 0.5% CMC solution was administrated to the rats as control. After administration of the test compound, the rats were fasted for 12 hours and anaesthetised with haloethan. The EPA and the fatty acid derivatives were administered by gastric intubation (gavage) once daily for 7 days. Blood samples were collected by cardiac puncture, and lipid concentrations in plasma were determined as outlined in the method section.

[4] = Hepatic levels of triacylglycerol (Example 17); format: in vivo, Wistar rats; conditions: fed 6 days, no prefeeding; TTA 150 mg/kg/day, TTP 300 mg/kg/day
Method: Male Wistar rats had free access to water and rat maintenance chow. They were fed palmitic acid or fatty acid analogues suspended in 0.5% CMC for 6 days. In some experiments TTA or TTP were fed for 3 days before feeding both for 6 days. At the end of the experiment the rats were fasted overnight, killed, the liver removed and homogenized. Triacylglycerol was measured in the homogenate.

[5] = High fat diet induced hyperinsulinemia (Example 11); format: in vivo, Wistar Charles River rats; conditions: HF diet supplemented with TTA, 21 days, overnight fast
Method: as §1
Rats weighing 280-360 g were divided into 3 groups (n=6) and fed with three different diets: standard rat chow, high fat diet (HF) and HF supplemented with TTA. After 21 days on their respective diets, blood was collected after an overnight fast from the tail vein. The data are shown as mean±SEM. Results were analysed by ANOVA and different letters denote statistical significance (p<0.05).

[6] = Body weight gain, liver and adipose tissue weight in young obese Zucker rats (Example 9); format: in vivo, obese Zucker (fa/fa) rats; conditions: 5 week-old male rats, TTA 300/kg/day in 0.5% CMC, 11 days; means ± SD
Method: The obese Zucker (fa/fa) rats used in this study were bred at the U 465 INSERM animal facility from pairs originally provided by the Harriet G. Bird Laboratory (Stow, Mass., USA). Unless otherwise stated, the animals were maintained under a constant light-dark cycle (light from 7:00 a.m. to 7:00 p.m.) at 21±1° C. and were given free access to food and water. Three rats were housed per cage. Weight gains were recorded daily.
5 week-old male obese Zucker (fa/fa) rats fed with TTA, 300/kg/day suspended in 0.5% CMC. Control animals received CMC only. Following 11 days of treatment, rats were killed by cervical dislocation, liver and epididymal adipose tissue pads were dissected out and weighed. Data are means±SD of 6 animals in the control- and 6 animals in the experimental group.

[7] = Blood insulin and glucose in 5 weeks old Zucker (fa/fa) rats (Example 13); format: in vivo; conditions: 300 mg/kg/day by oral gavage, 11 days
Method: as §1
The rats were administered TTA at a dose of 300 mg/kg/day suspended in 0.5% CMC (n=6) by oral gavage. Following 11 days of treatment, rats were killed by cervical dislocation. Blood was collected and the levels of insulin and glucose measured as indicated in the method section. Data are means±S.D.

Tetradecylthioacetic acid [TTA]
Decreased lipid level in plasma: Cholesterol [1]: 73 % of control
Decreased lipid level in plasma: Phospholipids [1]: 71 % of control
Decreased lipid level in plasma: Triglycerides [1]: 72 % of control
Increase of liver fatty acid oxidation (FIG. 8A) [2]: more than 7 fold
Plasma lipids: cholesterol [3]: 30 % reduction of control
Plasma lipids: triglycerides [3]: 45 % reduction of control
Hepatic TG (triacylglycerol) [4]: 7.7 ± 2.9 µmol/g
High fat diet-induced hyperinsulinemia (FIG. 3) [5]: prevents high fat diet-induced hyperinsulinemia
Body weight gain [6]: 6.23 ± 0.28 g/day
Reduction of blood concentration of glucose (FIG. 5) [7]: ~15%
Reduction of blood insulin concentration (FIG. 5) [7]: ~40%

From US6441036B1 (priority 1998, dated 2002)
